We go through 11 molecules from patent US20140045824A1, “METHOD FOR PRODUCING COMPLEX CRYSTAL AND METHOD FOR SCREENING COMPLEX CRYSTAL” (priority 2011, published 2014).

Format in all cases: physicochemical
A short description of data set [1]: Cocrystal screening by slurry method (Comparative Examples 4-1 to 4-6), powder X-ray diffraction. Further details: key: A cocrystal was completely formed.; B: A mixture of a cocrystal and the host compound or guest compound was formed.; C: A cocrystal was not formed (a mixture of the host compound and the guest compound was formed).; —: A residue was not obtained. The note with it: host carbamazepine, slurry in tetrahydrofuran, room temperature 7 days. On the procedure: 3 mg (0.0127 mmoles) of carbamazepine and a guest compound shown in Table 4 in an equimolar amount (0.0127 mmoles) to carbamazepine were weighed and put into a glass container, to which was then added 60 μL of water. These were shaken at room temperature for 7 days, and the obtained residues were subjected to powder X-ray diffraction measurement. 3 mg (0.0127 mmoles) of carbamazepine and a guest compound shown in Table 4 in an equimolar amount (0.0127 mmoles) to carbamazepine were weighed and put into a glass container, to which was then added 60 μL of ethanol. These were shaken at room temperature for 7 days, and the obtained residues were subjected to powder X-ray diffraction measurement. 3 mg (0.0127 mmoles) of carbamazepine and a guest compound shown in Table 4 in an equimolar amount (0.0127 mmoles) to carbamazepine were weighed and put into a glass container, to which was then added 60 μL of tetrahydrofuran. These were shaken at room temperature for 7 days, and the obtained residues were subjected to powder X-ray diffraction measurement. 3 mg (0.0127 mmoles) of carbamazepine and a guest compound shown in Table 4 in an equimolar amount (0.0127 mmoles) to carbamazepine were weighed and put into a glass container, to which was then added 60 μL of toluene. These were shaken at room temperature for 7 days, and the obtained residues were subjected to powder X-ray diffraction measurement. 3 mg (0.0127 mmoles) of carbamazepine and a guest compound shown in Table 4 in an equimolar amount (0.0127 mmoles) to carbamazepine were weighed and put into a glass container, to which was then added 60 μL of ethyl acetate. These were shaken at room temperature for 7 days, and the obtained residues were subjected to powder X-ray diffraction measurement. 3 mg (0.0127 mmoles) of carbamazepine and a guest compound shown in Table 4 in an equimolar amount (0.0127 mmoles) to carbamazepine were weighed and put into a glass container, to which was then added 60 μL of acetone. These were shaken at room temperature for 7 days, and the obtained residues were subjected to powder X-ray diffraction measurement.

The nature of data set [2]: Cocrystal screening by slurry method (Comparative Examples 1-1 to 1-6), powder X-ray diffraction. Further details: key to Cocrystal formation, Comparative Example 1* / Cocrystal formation, Comparative Example 1-1 / Cocrystal formation, Comparative Example 1-2 / Cocrystal formation, Comparative Example 1-3 / Cocrystal formation, Comparative Example 1-4 / Cocrystal formation, Comparative Example 1-5 / Cocrystal formation, Comparative Example 1-6: A cocrystal was completely formed.; B: A mixture of a cocrystal and the host compound or guest compound was formed.; C: A cocrystal was not formed (a mixture of the host compound and the guest compound was formed). The note with it: host theophylline; for Cocrystal formation, Comparative Example 1-6: slurry in acetone; for Cocrystal formation, Comparative Example 1-6 / Cocrystal formation, Comparative Example 1-2 / Cocrystal formation, Comparative Example 1-5 / Cocrystal formation, Comparative Example 1-3 / Cocrystal formation, Comparative Example 1-4 / Cocrystal formation, Comparative Example 1-1: room temperature 7 days; for Cocrystal formation, Comparative Example 1-2: slurry in ethanol; for Cocrystal formation, Comparative Example 1-5: slurry in ethyl acetate; for Cocrystal formation, Comparative Example 1-3: slurry in tetrahydrofuran; for Cocrystal formation, Comparative Example 1-4: slurry in toluene; for Cocrystal formation, Comparative Example 1-1: slurry in water; for Cocrystal formation, Comparative Example 1*: slurry summary: A if a cocrystal was formed in any one of Comparative Examples 1-1 to 1-6. On the procedure: 3 mg (0.0167 mmoles) of theophylline and a guest compound shown in Table 1 in an equimolar amount (0.0167 mmoles) to theophylline were weighed and put into a glass container, to which was then added 60 μL of water. These were shaken at room temperature for 7 days, and the obtained residues were subjected to powder X-ray diffraction measurement. 3 mg (0.0167 mmoles) of theophylline and a guest compound shown in Table I in an equimolar amount (0.0167 mmoles) to theophylline were weighed and put into a glass container, to which was then added 60 μL of ethanol. These were shaken at room temperature for 7 days, and the obtained residues were subjected to powder X-ray diffraction measurement. 3 mg (0.0167 mmoles) of theophylline and a guest compound shown in Table 1 in an equimolar amount (0.0167 mmoles) to theophylline were weighed and put into a glass container, to which was then added 60 μL of tetrahydrofuran. This was shaken at room temperature for 7 days, and the obtained residues were subjected to powder X-ray diffraction measurement. 3 mg (0.0167 mmoles) of theophylline and a guest compound shown in Table 1 in an equimolar amount (0.0167 mmoles) to theophylline were weighed and put into a glass container, to which was then added 60 μL of toluene. These were shaken at room temperature for 7 days, and the obtained residues were subjected to powder X-ray diffraction measurement. 3 mg (0.0167 mmoles) of theophylline and a guest compound shown in Table 1 in an equimolar amount (0.0167 mmoles) to theophylline were weighed and put into a glass container, to which was then added 60 μL of ethyl acetate. These were shaken at room temperature for 7 days, and the obtained residues were subjected to powder X-ray diffraction measurement. 3 mg (0.0167 mmoles) of theophylline and a guest compound shown in Table 1 in an equimolar amount (0.0167 mmoles) to theophylline were weighed and put into a glass container, to which was then added 60 μL of acetone. These were shaken at room temperature for 7 days, and the obtained residues were subjected to powder X-ray diffraction measurement.

Data set [3] is described as follows: Cocrystal screening by heating method without menthol (Comparative Example 3). The following applies: host theophylline, equimolar guest, no menthol, 4 hours at 80° C. Further details: key: A cocrystal was completely formed.; B: A mixture of a cocrystal and the host compound or guest compound was formed.; C: A cocrystal was not formed (a mixture of the host compound and the guest compound was formed). On the procedure: 3 mg (0.0167 mmoles) of theophylline and a guest compound shown in Table 1 in an equimolar amount (0.0167 mmoles) to theophylline were weighed and mixed using an agate mortar. At that time, particles having a large size to an extent that they could be distinguished through visual inspection were grinded on the agate mortar. 10 mg of this mixed powder was weighed and put into a test tube, followed by heating for 4 hours in an oven at 80° C. The obtained solid was subjected to powder X-ray diffraction measurement and thermal analysis.

Turning to `O=C1NS(=O)(=O)c2ccccc21` [Saccharin], in data set [1], the “Cocrystal formation, Comparative Example 4-3” value was “—”. In data set [2], the “Cocrystal formation, Comparative Example 1-6” value is given as “C”; the “Cocrystal formation, Comparative Example 1-2” value is on record as “A”; the “Cocrystal formation, Comparative Example 1-5” value was “A”; the “Cocrystal formation, Comparative Example 1-3” value was “C”. Further, in data set [2], the “Cocrystal formation, Comparative Example 1-4” value is given as “C”; the “Cocrystal formation, Comparative Example 1-1” value is reported as “C”; the “Cocrystal formation, Comparative Example 1*” value is “A”. Further, the “Cocrystal formation, Comparative Example 3” value in data set [3] is reported as “C”.
On to `O=C(O)CCCC(=O)O` [Glutaric acid], for which, in data set [1], the “Cocrystal formation, Comparative Example 4-3” value was “—”. Further, in data set [2], the “Cocrystal formation, Comparative Example 1-6” value is given as “C”; the “Cocrystal formation, Comparative Example 1-2” value is “C”; the “Cocrystal formation, Comparative Example 1-5” value was “C”; the “Cocrystal formation, Comparative Example 1-3” value was “C”. In data set [2], the “Cocrystal formation, Comparative Example 1-4” value is “C”; the “Cocrystal formation, Comparative Example 1-1” value is listed as “C”; the “Cocrystal formation, Comparative Example 1*” value is given as “C”. Besides, in data set [3], the “Cocrystal formation, Comparative Example 3” value is “B”.
With `O=C(O)C(=O)O` [Oxalic acid], the “Cocrystal formation, Comparative Example 4-3” value in data set [1] is given as “—”. Also, in data set [2], the “Cocrystal formation, Comparative Example 1-6” value is “A”; the “Cocrystal formation, Comparative Example 1-2” value is recorded as “C”; the “Cocrystal formation, Comparative Example 1-5” value is “A”; the “Cocrystal formation, Comparative Example 1-3” value is listed as “A”. In data set [2], the “Cocrystal formation, Comparative Example 1-4” value is reported as “C”; the “Cocrystal formation, Comparative Example 1-1” value is listed as “C”; the “Cocrystal formation, Comparative Example 1*” value is “A”. For the same molecule, the “Cocrystal formation, Comparative Example 3” value in data set [3] is listed as “C”.
Take `NC(=O)c1ccccc1` [Benzamide]: in data set [2], the “Cocrystal formation, Comparative Example 1-6” value is recorded as “C”; the “Cocrystal formation, Comparative Example 1-2” value was “C”; the “Cocrystal formation, Comparative Example 1-5” value is “C”; the “Cocrystal formation, Comparative Example 1-3” value is “C”. In data set [2], the “Cocrystal formation, Comparative Example 1-4” value is recorded as “C”; the “Cocrystal formation, Comparative Example 1-1” value was “A”; the “Cocrystal formation, Comparative Example 1*” value is on record as “A”. In addition, the “Cocrystal formation, Comparative Example 3” value in data set [3] was “C”.
Consider `O=C(O)c1ccccc1` [Benzoic acid], for which the “Cocrystal formation, Comparative Example 4-3” value in data set [1] was “—”. Also, in data set [2], the “Cocrystal formation, Comparative Example 1-6” value is “C”; the “Cocrystal formation, Comparative Example 1-2” value is “C”; the “Cocrystal formation, Comparative Example 1-5” value was “C”; the “Cocrystal formation, Comparative Example 1-3” value was “C”. For the same molecule, in data set [2], the “Cocrystal formation, Comparative Example 1-4” value is reported as “C”; the “Cocrystal formation, Comparative Example 1-1” value is on record as “C”; the “Cocrystal formation, Comparative Example 1*” value is listed as “C”. Further, in data set [3], the “Cocrystal formation, Comparative Example 3” value was “B”.
Take `C/C=C/C=C/C(=O)O` [Sorbic acid]: the “Cocrystal formation, Comparative Example 4-3” value in data set [1] is listed as “—”. In addition, in data set [2], the “Cocrystal formation, Comparative Example 1-6” value is on record as “C”; the “Cocrystal formation, Comparative Example 1-2” value is on record as “C”; the “Cocrystal formation, Comparative Example 1-5” value was “A”; the “Cocrystal formation, Comparative Example 1-3” value is “C”. In addition, in data set [2], the “Cocrystal formation, Comparative Example 1-4” value is “A”; the “Cocrystal formation, Comparative Example 1-1” value is reported as “C”; the “Cocrystal formation, Comparative Example 1*” value is “A”. Further, in data set [3], the “Cocrystal formation, Comparative Example 3” value was “B”.
As to `O=S(=O)(O)CCS(=O)(=O)O` [Ethanedisulfonic acid], in data set [2], the “Cocrystal formation, Comparative Example 1-6” value was “A”; the “Cocrystal formation, Comparative Example 1-2” value is “A”; the “Cocrystal formation, Comparative Example 1-5” value is listed as “A”; the “Cocrystal formation, Comparative Example 1-3” value is reported as “A”. In data set [2], the “Cocrystal formation, Comparative Example 1-4” value was “A”; the “Cocrystal formation, Comparative Example 1-1” value is reported as “C”; the “Cocrystal formation, Comparative Example 1*” value is reported as “A”. Also, in data set [3], the “Cocrystal formation, Comparative Example 3” value is on record as “A”.
`NCC(=O)O` [Glycine]: the “Cocrystal formation, Comparative Example 4-3” value in data set [1] was “—”. Also, in data set [2], the “Cocrystal formation, Comparative Example 1-6” value is “C”; the “Cocrystal formation, Comparative Example 1-2” value is recorded as “C”; the “Cocrystal formation, Comparative Example 1-5” value is reported as “C”; the “Cocrystal formation, Comparative Example 1-3” value is “C”. Moreover, in data set [2], the “Cocrystal formation, Comparative Example 1-4” value is “C”; the “Cocrystal formation, Comparative Example 1-1” value is on record as “C”; the “Cocrystal formation, Comparative Example 1*” value was “C”. Besides, the “Cocrystal formation, Comparative Example 3” value in data set [3] is “C”.
As to `CC(C)C[C@H](N)C(=O)O` [L-Leucine], in data set [1], the “Cocrystal formation, Comparative Example 4-3” value was “—”. In addition, in data set [2], the “Cocrystal formation, Comparative Example 1-6” value is given as “C”; the “Cocrystal formation, Comparative Example 1-2” value is given as “C”; the “Cocrystal formation, Comparative Example 1-5” value is “C”; the “Cocrystal formation, Comparative Example 1-3” value is recorded as “C”. Also, in data set [2], the “Cocrystal formation, Comparative Example 1-4” value is reported as “C”; the “Cocrystal formation, Comparative Example 1-1” value was “C”; the “Cocrystal formation, Comparative Example 1*” value is on record as “C”. In addition, the “Cocrystal formation, Comparative Example 3” value in data set [3] was “C”.
On to `O=C(O)/C=C\C(=O)O` [Maleic acid], for which, in data set [2], the “Cocrystal formation, Comparative Example 1-6” value was “C”; the “Cocrystal formation, Comparative Example 1-2” value is given as “C”; the “Cocrystal formation, Comparative Example 1-5” value was “A”; the “Cocrystal formation, Comparative Example 1-3” value is listed as “C”. Also, in data set [2], the “Cocrystal formation, Comparative Example 1-4” value is “A”; the “Cocrystal formation, Comparative Example 1-1” value is listed as “C”; the “Cocrystal formation, Comparative Example 1*” value is given as “A”. The “Cocrystal formation, Comparative Example 3” value in data set [3] was “B”.
Take `NC(=O)c1cccnc1` [Nicotinamide]: in data set [2], the “Cocrystal formation, Comparative Example 1-6” value is listed as “A”; the “Cocrystal formation, Comparative Example 1-2” value is reported as “B”; the “Cocrystal formation, Comparative Example 1-5” value is “A”; the “Cocrystal formation, Comparative Example 1-3” value was “B”. Further, in data set [2], the “Cocrystal formation, Comparative Example 1-4” value is given as “A”; the “Cocrystal formation, Comparative Example 1-1” value was “C”; the “Cocrystal formation, Comparative Example 1*” value is “A”. Moreover, in data set [3], the “Cocrystal formation, Comparative Example 3” value was “C”.
